These results are taken from patent US12510533B2, “Methods for treating multiple myeloma and the use of companion biomarkers for 4-(4-(4-(((2-(2,6-dioxopiperidin-3-yl)-1-oxoisoindolin-4-yl)oxy)methyl)benzyl)piperazin-1-yl)-3-fluorobenzonitrile” (Celgene Corporation, priority 2018, dated 2025).

The target of experiment [1] is T1, Aiolos (Homo sapiens, UniProt Q96SW2+Q9UKT9).
T1 construct: expressed in transfected cells; host or cells: DF15 multiple myeloma cells
Nature of the experiment: Aiolos degradation, ePL luminescence assay in DF15 cells expressing ePL-tagged Aiolos. The experiment is classed as cell-based. The settings on record: for DC50: read-out: Degradation of Aiolos IC50, DF15 cells. On the procedure:
FIG. 1 illustrates that Compound 2 and Compound 3 degraded Aiolos protein in a time and concentration dependent manner. DF15 cells expressing Enhanced ProLabel (ePL)-tagged Aiolos were incubated with Compound 2 (triangle) or Compound 3 (square) for 45 minutes, 90 minutes, or 3 hours at the indicated concentrations. Cell extracts were then generated and the amount of Aiolos-ePL protein was determined by ePL luminescence assay.
The relative effectiveness of Compound 2 and Compound 3 to promote the destruction of Aiolos protein by the CRL4^CRBN E3 ubiquitin ligase was investigated in DF15 myeloma cells at different time points (45 minutes, 90 minutes, and 3 hours). DF15 cells expressing Enhanced ProLabel (ePL)-tagged Aiolos were incubated with Compound 2 or Compound 3 for 45 minutes, 90 minutes, or 3 hours. Cell extracts were then generated and the amount of Aiolos ePL protein was determined by ePL luminescence assay. Values shown in Table 1 correspond to data presented in FIG. 1 for Aiolos content vs. concentration.

For experiment [2], the system named is OPM2 cells. Nature of the experiment: cells. The experiment is classed as cell-based, human. The following applies: Homo sapiens, read-out: Inhibition of Proliferation of OPM2 Cells IC50. On the procedure:
The effect of the stabilizing mutations on cell proliferation was also measured.

SMILES strings stand for the structures. Read-outs that look alike come from different tables or passages of the source.

T1 sequence (Q9UKT9 whole entry): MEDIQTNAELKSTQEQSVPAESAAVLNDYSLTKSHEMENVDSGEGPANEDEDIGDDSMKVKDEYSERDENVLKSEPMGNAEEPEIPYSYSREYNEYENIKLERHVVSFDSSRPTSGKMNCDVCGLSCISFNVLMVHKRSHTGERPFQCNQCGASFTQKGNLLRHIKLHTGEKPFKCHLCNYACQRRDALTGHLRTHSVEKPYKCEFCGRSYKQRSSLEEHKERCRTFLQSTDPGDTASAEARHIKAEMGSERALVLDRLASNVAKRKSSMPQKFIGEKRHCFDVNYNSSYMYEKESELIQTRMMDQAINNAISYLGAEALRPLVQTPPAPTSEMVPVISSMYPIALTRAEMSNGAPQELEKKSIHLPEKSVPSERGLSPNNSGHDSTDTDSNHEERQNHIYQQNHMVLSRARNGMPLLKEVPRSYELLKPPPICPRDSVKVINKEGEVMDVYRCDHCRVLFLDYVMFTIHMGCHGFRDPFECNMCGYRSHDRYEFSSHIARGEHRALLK
T1 sequence (Q96SW2 whole entry): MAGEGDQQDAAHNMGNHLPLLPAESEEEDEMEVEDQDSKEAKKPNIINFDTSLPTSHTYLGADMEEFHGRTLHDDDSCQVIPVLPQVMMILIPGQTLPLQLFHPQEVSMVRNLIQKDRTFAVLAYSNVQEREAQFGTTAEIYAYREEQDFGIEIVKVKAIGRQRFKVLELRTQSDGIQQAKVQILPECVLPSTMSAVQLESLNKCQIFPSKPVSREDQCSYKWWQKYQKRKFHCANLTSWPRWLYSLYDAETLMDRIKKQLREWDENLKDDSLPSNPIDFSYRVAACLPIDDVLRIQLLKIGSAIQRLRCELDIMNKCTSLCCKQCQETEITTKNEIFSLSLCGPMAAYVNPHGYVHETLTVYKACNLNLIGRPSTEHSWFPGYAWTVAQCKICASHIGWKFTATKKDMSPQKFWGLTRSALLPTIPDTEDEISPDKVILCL
T1 sequence (Q16531 2-1140, further chain): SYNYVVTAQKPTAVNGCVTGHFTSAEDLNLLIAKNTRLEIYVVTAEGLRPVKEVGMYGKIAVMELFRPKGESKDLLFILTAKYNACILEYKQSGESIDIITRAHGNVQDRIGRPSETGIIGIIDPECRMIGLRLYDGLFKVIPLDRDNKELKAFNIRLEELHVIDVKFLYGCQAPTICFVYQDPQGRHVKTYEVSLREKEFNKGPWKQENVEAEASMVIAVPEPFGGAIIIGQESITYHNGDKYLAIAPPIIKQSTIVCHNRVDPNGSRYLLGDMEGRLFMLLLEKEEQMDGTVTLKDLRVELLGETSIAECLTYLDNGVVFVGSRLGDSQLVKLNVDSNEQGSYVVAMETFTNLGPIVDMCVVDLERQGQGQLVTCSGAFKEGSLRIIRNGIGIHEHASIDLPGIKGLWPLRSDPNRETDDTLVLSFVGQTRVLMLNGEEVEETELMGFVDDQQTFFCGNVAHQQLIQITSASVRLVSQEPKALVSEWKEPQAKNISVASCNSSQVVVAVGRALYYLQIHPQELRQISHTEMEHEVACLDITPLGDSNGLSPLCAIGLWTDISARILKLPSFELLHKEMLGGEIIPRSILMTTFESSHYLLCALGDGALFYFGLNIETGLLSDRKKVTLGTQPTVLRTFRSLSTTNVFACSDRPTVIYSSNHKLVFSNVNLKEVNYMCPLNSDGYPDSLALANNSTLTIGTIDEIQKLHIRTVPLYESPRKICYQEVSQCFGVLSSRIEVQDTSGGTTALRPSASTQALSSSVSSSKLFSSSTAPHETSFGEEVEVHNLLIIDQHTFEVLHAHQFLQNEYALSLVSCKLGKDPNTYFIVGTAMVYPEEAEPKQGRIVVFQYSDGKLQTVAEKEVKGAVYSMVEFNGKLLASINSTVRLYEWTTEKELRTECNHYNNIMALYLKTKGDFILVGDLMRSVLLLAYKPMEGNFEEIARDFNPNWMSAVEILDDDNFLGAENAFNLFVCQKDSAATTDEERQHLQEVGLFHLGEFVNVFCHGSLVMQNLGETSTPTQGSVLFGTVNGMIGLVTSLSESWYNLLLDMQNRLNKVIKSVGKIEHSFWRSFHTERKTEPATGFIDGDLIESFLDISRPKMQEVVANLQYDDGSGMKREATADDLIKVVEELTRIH

What is called inhibition is the drop in the measured response relative to a control, in per cent. With `N#Cc1ccc(N2CCN(Cc3ccc(COc4cccc5c4CN([C@@H]4CCC(=O)NC4=O)C5=O)cc3)CC2)c(F)c1` [Compound 3, (R)-4-(4-(4-(((2-(2,6-dioxopiperidin-3-yl)-1-oxoisoindolin-4-yl)oxy)methyl)benzyl)piperazin-1-yl)-3-fluorobenzonitrile], the “manner of Aiolos degradation” value in experiment [1] (45 minutes, 90 minutes, 3 hours) is “time-dependent and concentration-dependent”. Also, the inhibition at 0.001 µM in experiment [1] (DF15, read-out: inhibition at 0.001 μM) was determined as 13%. Further, the DC50 in experiment [1] (45 minutes incubation) is > 100 nM; in experiment [1] (90 minutes incubation), 5.9 nM; in experiment [1] (3 hours incubation), 0.45 nM.

Turning to `Nc1cccc2c1C(=O)N(C1CCC(=O)NC1=O)C2=O` (stereo not drawn) [Pomalidomide, pomalidomide, reference compound], the IC50 is 64 nM in experiment [2] (OPM-2, Parental); 56 nM in experiment [2] (OPM-2, overexpressing Aiolos Q147H); 89 nM in experiment [2] (OPM-2, overexpressing Aiolos); > 100 nM in experiment [2] (OPM-2, overexpressing Ikaros-G151A); > 100 nM in experiment [2] (OPM-2, overexpressing Ikaros-Q146H); 91 nM in experiment [2] (OPM-2, overexpressing Ikaros). For the same compound, the IC50 in experiment [2] (OPM-2, overexpressing ZFP91-Q400H) came out at 73 nM.
